Laboratory results as given in patent publication US20100311714A1, “1H-IMIDAZO[4,5-c]QUINOLINONE COMPOUNDS” (priority 2009, published 2010).

tested on: PKB Ser473 phosphorylation in Rat1-myr-HA-p110 delta cells; test: Reverse protein array, PKB Ser473 phosphorylation in Rat1-myr-HA-p110 delta cells; assay type: cell-based; settings: Rattus norvegicus, 0.5 h, 30 minutes compound incubation, read-out: p-PKB/IC50_delta

IC50 [nM]	SMILES
155	CCOc1cc(-c2ccc3ncc4c(c3c2)n(-c2ccc(N3CCC3)nc2C)c(=O)n4C)cnc1COC [Example 23.5, 1-(6-Azetidin-1-yl-2-methyl-pyridin-3-yl)-8-(5-ethoxy-6-methoxymethyl-pyridin-3-yl)-3-methyl-1,3-dihydro-imidazo[4,5-c]quinolin-2-one]
59	COc1ncc(-c2ccc3ncc4c(c3c2)n(-c2ccc(N3CC[C@H](O)C3)nc2C)c(=O)n4C)c(OC)n1 [Example 32.3, 8-(2,4-Dimethoxy-pyrimidin-5-yl)-1-[6-((S)-3-hydroxy-pyrrolidin-1-yl)-2-methyl-pyridin-3-yl]-3-methyl-1,3-dihydro-imidazo[4,5-c]quinolin-2-one]
24.7	Cc1nc(F)ccc1-n1c(=O)n(C)c2cnc3ccc(-c4cnc(N)c(C(F)(F)F)c4)cc3c21 [Example 7.1, 8-(6-Amino-5-trifluoromethyl-pyridin-3-yl)-1-(6-fluoro-2-methyl-pyridin-3-yl)-3-methyl-1,3-dihydro-imidazo[4,5-c]quinolin-2-one]
42.2	Cc1nc(N2CCC2)ccc1-n1c(=O)n(C)c2cnc3ccc(-c4cncc(C(C)(C)O)c4)cc3c21 [Example 23.3, 1-(6-Azetidin-1-yl-2-methyl-pyridin-3-yl)-8-[5-(1-hydroxy-1-methyl-ethyl)-pyridin-3-yl]-3-methyl-1,3-dihydro-imidazo[4,5-c]quinolin-2-one]
67.3	CNc1cncc(-c2ccc3ncc4c(c3c2)n(-c2cccnc2C)c(=O)n4C)c1 [Example 2.26, 3-Methyl-8-(5-methylamino-pyridin-3-yl)-1-(2-methyl-pyridin-3-yl)-1,3-dihydro-imidazo[4,5-c]quinolin-2-one]
227	Cc1ncccc1-n1c(=O)n(C)c2cnc3ccc(-c4ccc(OCCCN(C)C)nc4)cc3c21 [Example 2.10, 8-[6-(3-Dimethylamino-propoxy)-pyridin-3-yl]-3-methyl-1-(2-methyl-pyridin-3-yl)-1,3-dihydro-imidazo[4,5-c]quinolin-2-one]
825	COc1cc(-c2ccc3ncc4c(c3c2)n(-c2cccnc2C)c(=O)n4C)cnc1C(OC)OC [Example 2.27, 8-(6-Dimethoxymethyl-5-methoxy-pyridin-3-yl)-3-methyl-1-(2-methyl-pyridin-3-yl)-1,3-dihydro-imidazo[4,5-c]quinolin-2-one]
